Laboratory results as given in ChEMBL document CHEMBL1201862, “PubChem BioAssay data set” (2004).
Activity calls are given as the source filed them. No stated cut-off is given here; in the data, actives have a measured IC50 and inactives only a lower limit.

Target: Envelope glycoprotein gp160 (Human immunodeficiency virus 1, UniProt Q6QLK5)
Test: inhibitors of HIV fusion peptide binding, primary screen, biochemical, uHTS, fluorescence dequenching (AID 1986)

Chain of Envelope glycoprotein gp160 (Q6QLK5 whole entry, the tested form may be a part): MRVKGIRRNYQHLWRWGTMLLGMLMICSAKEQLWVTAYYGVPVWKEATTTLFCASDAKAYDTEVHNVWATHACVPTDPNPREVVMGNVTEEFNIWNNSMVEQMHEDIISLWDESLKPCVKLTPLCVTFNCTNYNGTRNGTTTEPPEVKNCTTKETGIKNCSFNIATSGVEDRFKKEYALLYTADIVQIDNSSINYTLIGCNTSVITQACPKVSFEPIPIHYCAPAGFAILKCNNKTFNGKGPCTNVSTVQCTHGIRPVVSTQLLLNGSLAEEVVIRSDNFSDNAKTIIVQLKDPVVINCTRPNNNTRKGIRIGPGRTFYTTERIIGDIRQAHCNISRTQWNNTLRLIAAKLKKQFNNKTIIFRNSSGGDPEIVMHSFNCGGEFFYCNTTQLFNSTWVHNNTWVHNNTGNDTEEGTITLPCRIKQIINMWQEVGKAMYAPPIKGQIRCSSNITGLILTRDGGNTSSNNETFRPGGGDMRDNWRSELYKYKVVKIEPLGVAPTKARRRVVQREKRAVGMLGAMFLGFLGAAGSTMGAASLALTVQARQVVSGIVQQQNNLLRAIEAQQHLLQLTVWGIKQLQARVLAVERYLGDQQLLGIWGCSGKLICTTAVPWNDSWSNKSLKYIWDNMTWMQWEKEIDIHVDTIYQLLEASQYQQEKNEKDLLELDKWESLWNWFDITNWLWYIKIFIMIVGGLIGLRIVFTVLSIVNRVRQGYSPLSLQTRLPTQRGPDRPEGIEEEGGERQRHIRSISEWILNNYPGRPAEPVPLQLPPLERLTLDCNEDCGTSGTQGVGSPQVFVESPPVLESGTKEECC

| Structure (SMILES) | IC50 |
| --- | --- |
| COc1ccc(C(=O)Nc2ccc(/C(C)=N/NC(=O)c3ccncc3)cc2)cc1 | 15 µM (active) |
| O=C(Nc1cc(C(=O)Nc2ccccc2C(=O)O)cc(C(=O)Nc2ccccc2C(=O)O)c1)c1ccccc1 | 6.36 µM (active) |
